Patent US10800755B2, “2,6-disubstituted pyridine derivative” (Sumitomo Dainippon Pharma Co., Ltd., priority 2017, dated 2020)
Where two headings read alike, the source gives them in different places.

Assays:
[1] = target: T1, human 5-HT1A receptor (Homo sapiens (Human), UniProt P08908); assay: Test 1: agonistic activity for human 5-HT1A receptor (aequorin/Gα16 luminescence in CHO-K1 cell); assay type: cell-based; conditions: for 5-HT1A agonistic activity Emax / Emax: 100% = 10 μmol/L endogenous ligand; for EC50: CHO-K1 cell, aequorin luminescence; for Emax: CHO-K1
Protocol: (§1) Test 1: Evaluation of Agonistic Activity for Human 5-HT1A Receptor and Human D4 Receptor
(§2) Aequorin, Gα16 proteins, and each receptor were transiently expressed in CHO-K1 cell (Chinese hamster ovary), and seeded to 384-well plate. The plate was incubated in a CO2 incubator at 37° C. for 24 hours. Each example compound dissolved in DMSO was added thereto, and the change of luminescence amount was measured with Hamamatsu FDSS/μCELL System (Hamamatsu Photonics).

[2] = target: T1, human 5-HT1A receptor; assay: Test 2: binding activity to human 5-HT1A receptor ([3H] 8-OH-DPAT, CHO cell membrane)
Protocol: (§3) Test 2: Evaluation of Binding Activity to Human 5-HT1A Receptor, Human D4 Receptor, and Human D2 Receptor
(§4) CHO cell membrane fraction in which human 5-HT1A receptor, human D4 receptor, and human D2 receptor were expressed was purchased from PerkinElmer Co., Ltd. In the evaluation test of binding, the test compound dissolved in DMSO, each receptor membrane preparation diluted with buffer solution, and [3H] […] The nonspecific binding to each receptor was evaluated by a competition binding experiment in the presence of 10 μmol/L 8-OH-DPAT, 10 μmol/L dopamine, or 10 μmol/L spiperone, respectively.

[3] = target: T2, human D4 receptor (Homo sapiens (Human), UniProt P21917); assay: Test 1: agonistic activity for human D4 receptor (aequorin/Gα16 luminescence in CHO-K1 cell); assay type: cell-based; conditions: for D4 agonistic activity Emax / Emax: 100% = 10 μmol/L endogenous ligand; for EC50: CHO-K1 cell, aequorin luminescence; for Emax: CHO-K1
Protocol: as §1, §2

[4] = target: human D2 receptor (Homo sapiens (Human), UniProt P14416); assay: Test 2: binding activity to human D2 receptor ([3H] spiperone, CHO cell membrane)
Protocol: as §3, §4

[5] = Test 3-1: metabolic stability test of human liver microsome (0.1 mg/mL); assay type: in vitro ADME; conditions: test compound 0.1 μmol/L, 37° C., 30 minutes
Protocol: Test 3-1: Metabolic Stability Test of Human Liver Microsome
The stability of the present compounds for human liver microsome metabolism was evaluated as mentioned below. The used human liver microsome was obtained from Xenontech. Human liver microsome, NADPH, and each test compound were mixed in 25 mmol/L phosphate buffer solution (pH 7.4) to adjust each concentration as shown below, and the mixture was incubated at 37° C. for 30 minutes. • human liver microsome: 0.1 mg/mL • NAPDH: 3.2 mmol/L • test compound: 0.1 μmol/L
The residual ratio of the test compound in each sample after the incubation for 30 minutes was measured with a LC-MS, and the metabolic stability of human liver microsome was calculated about each test compound with the following formula. Metabolic stability of human liver microsome (mL/min/mg protein)=−LN (residual ratio)/“reaction time”/“concentration of human liver microsome”

[6] = target: T2, human D4 receptor; assay: Test 2: binding activity to human D4 receptor ([3H] dopamine, CHO cell membrane)
Protocol: as §3, §4

[7] = target: hERG channel (Homo sapiens (Human), UniProt Q12809); assay: Test 5-2: activity for inhibiting hERG channel (whole-cell patch clamp, hERG-CHO cell, Qube); assay type: cell-based; conditions: read-out: hERG inhibition IC50
Protocol: Test 5-2: Evaluation of Activity for Inhibiting hERG Channel
The activity of the present compound for inhibiting hERG channel was measured by whole-cell patch clamp method with auto patch clamp system, using CHO cell wherein hERG channel involved in human rapidly activating delayed rectifier potassium current (IKr) was forcibly expressed.
hERG-CHO cell purchased from ChanTest was incubated at 37° C. in a CO2 incubator, and the cell was exfoliated from the flask with trypsin to prepare a cell suspension, shortly before the hERG current measurement.
Extracellular fluid: 2 mmol/L CaCl2, 1 mmol/L MgCl2, 10 mmol/L HEPES, 4 mmol/L KCl, 145 mmol/L NaCl, 10 mmol/L glucose
Intracellular fluid: 10 mmol/L HEPES, 10 mmol/L EGTA, 20 mmol/L KCl, 130 mmol/L KF
Test compound solution: The compound was dissolved in DMSO by adjusting the concentration to 2 mmol/L or 20 mmol/L to prepare each test compound solution. […] (Measurement of Current Value and Data Analysis)
The cell suspension, the extracellular fluid, the intracellular fluid, and the measurement plate were set in an auto patch clamp system, and the hERG current was measured by whole-cell patch clamp method. The voltage-protocol was as follows: the holding potential was adjusted to −80 mV, the depolarizing pulse was added at −50 mV to +20 mV for 5 seconds, the repolarizing pulse was added at −50 mV for 5 seconds, then the potential was returned to the holding potential. Each pulse interval was 15 seconds. The data analysis was carried out with Qube Assay Software (Sophion Scientific). The test was carried out applying increscently 4 concentrations of each test compound, and the average of the peak tail currents that were obtained by the last 3 stimulations in each applied concentration was made to be the evaluated data. By using the current inhibition rate for the pre-applied current at each concentration of each test compound, IC50 value was calculated by Hill equation with the software.

[8] = [3H] 8-OH-DPAT, read-out: 5-HT1A binding affinity (Ki value)
[9] = [3H] spiperone, read-out: D2 binding affinity (Ki value)
[10] = [3H] dopamine, read-out: D4 binding affinity (Ki value)

Chain of human D2 receptor (P14416 whole entry): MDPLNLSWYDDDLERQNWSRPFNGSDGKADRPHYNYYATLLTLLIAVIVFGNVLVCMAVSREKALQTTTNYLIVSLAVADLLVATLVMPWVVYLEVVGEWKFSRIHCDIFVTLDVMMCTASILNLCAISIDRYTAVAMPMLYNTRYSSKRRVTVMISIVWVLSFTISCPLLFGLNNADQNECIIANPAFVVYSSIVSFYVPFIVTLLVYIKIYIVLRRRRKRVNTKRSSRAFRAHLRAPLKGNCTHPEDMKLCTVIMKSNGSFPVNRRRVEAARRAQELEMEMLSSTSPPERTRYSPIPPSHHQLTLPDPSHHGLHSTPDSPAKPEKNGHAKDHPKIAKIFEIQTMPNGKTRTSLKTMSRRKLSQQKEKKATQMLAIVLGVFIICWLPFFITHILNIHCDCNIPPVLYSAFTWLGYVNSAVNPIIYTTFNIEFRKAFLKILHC
T1 sequence (P08908 whole entry): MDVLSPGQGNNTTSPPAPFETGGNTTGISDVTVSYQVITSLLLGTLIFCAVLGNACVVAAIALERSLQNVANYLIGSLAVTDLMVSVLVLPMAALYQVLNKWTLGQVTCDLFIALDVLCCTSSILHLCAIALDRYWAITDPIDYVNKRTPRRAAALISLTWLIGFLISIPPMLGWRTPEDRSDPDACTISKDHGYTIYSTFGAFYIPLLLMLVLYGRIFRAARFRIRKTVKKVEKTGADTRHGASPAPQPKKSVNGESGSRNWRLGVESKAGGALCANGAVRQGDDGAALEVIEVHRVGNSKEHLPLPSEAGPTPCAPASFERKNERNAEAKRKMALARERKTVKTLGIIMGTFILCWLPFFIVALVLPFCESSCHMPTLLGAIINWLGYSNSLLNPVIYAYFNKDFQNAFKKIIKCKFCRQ
Chain of hERG channel (Q12809 whole entry): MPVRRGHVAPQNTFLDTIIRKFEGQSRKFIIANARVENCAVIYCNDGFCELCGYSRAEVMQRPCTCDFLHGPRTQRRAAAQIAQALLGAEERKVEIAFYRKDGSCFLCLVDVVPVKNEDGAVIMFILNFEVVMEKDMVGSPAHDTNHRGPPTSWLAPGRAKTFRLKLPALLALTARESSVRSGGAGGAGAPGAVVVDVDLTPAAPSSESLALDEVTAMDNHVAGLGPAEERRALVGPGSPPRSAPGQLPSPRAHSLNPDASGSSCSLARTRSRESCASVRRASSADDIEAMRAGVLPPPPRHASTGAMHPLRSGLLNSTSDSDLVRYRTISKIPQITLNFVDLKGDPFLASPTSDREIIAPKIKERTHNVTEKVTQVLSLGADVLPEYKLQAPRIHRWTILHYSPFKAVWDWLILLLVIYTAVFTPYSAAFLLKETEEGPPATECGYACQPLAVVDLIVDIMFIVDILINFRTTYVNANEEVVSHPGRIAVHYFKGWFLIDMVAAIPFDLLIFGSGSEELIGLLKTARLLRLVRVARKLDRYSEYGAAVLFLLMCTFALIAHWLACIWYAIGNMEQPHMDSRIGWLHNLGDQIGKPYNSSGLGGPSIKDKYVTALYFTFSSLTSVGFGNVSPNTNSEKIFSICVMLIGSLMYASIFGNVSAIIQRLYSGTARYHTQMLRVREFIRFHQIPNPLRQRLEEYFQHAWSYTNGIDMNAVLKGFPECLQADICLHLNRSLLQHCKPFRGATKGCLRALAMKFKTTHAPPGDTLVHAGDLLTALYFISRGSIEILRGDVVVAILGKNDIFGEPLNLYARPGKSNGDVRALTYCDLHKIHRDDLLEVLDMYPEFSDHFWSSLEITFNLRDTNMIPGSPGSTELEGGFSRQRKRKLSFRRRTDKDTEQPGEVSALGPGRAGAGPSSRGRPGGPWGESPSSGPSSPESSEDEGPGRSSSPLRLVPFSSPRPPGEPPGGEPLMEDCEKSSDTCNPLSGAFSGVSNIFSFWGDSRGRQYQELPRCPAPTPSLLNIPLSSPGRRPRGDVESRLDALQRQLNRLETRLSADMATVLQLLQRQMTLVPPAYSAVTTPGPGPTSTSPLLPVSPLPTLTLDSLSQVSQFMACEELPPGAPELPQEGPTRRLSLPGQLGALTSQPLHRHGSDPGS
T2 sequence (P21917 whole entry): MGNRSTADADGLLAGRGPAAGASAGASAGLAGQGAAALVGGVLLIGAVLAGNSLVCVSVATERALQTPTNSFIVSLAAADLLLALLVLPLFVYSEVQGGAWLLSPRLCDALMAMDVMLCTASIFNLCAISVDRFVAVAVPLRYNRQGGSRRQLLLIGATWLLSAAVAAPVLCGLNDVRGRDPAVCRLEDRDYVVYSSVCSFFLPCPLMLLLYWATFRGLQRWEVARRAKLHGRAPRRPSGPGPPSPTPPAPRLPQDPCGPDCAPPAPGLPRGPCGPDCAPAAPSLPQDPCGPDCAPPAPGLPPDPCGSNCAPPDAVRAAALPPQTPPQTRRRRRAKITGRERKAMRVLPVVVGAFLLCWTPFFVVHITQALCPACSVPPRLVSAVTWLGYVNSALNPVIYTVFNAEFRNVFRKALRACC

| EC50 [1] [nM] | Ki [2, 8] [nM] | EC50 [3] [nM] | Ki [4, 9] [nM] | Ki [6, 10] [nM] | Emax [1] [%] | Emax [3] [%] | Compound | 5-HT1A agonistic activity Emax [1] [%] | D4 agonistic activity Emax [3] [%] | Metabolic stability of human liver microsome [5] [mL/min/mg protein] | IC50 [7] [nM] | Ki [6] [nM] | Ki [2] [nM] | Ki [4] [nM] |
| --- | --- | --- | --- | --- | --- | --- | --- | --- | --- | --- | --- | --- | --- | --- |
| 100 | 13 | 41 | > 10000 | 505 | 33 | 55 | Cc1cccc(C2CCN(CCNC(=O)C3CCCOC3)CC2)n1 (stereo not drawn) [Example 15] |  |  | <0.05 | > 10000 |  |  |  |
| 632 | 166 | 62 | > 10000 | 408 | 28 | 59 | O=C(NCCN1CCC(c2cccc(C(F)(F)F)n2)CC1)C1CCOC1 (stereo not drawn) [Example 23] |  |  |  |  |  |  |  |
| 67 | 27 | 32 | > 10000 | 3380 | 50 | 62 | Cc1cccc(C2CCN(CCNC(=O)C3CCCO3)CC2)n1 (stereo not drawn) [Example 24] |  |  |  |  |  |  |  |
| 570 | 77 | 1650 | > 10000 | 2470 | 44 | 51 | CO[C@H]1CC[C@H](C(=O)NCCN2CCC(c3cccc(C(F)(F)F)n3)CC2)CC1 [Example 27] |  |  |  |  |  |  |  |
| 279 | 132 | 31 | > 10000 | 120 | 38 | 58 | Nc1cccc(C2CCN(CCNC(=O)C3CCOCC3)CC2)n1 [Example 36, N-{2-[4-(6-Aminopyridin-2-yl)piperidin-1-yl]ethyl}-tetrahydro-2H-pyran-4-carboxamide] |  |  |  |  |  |  |  |
| 343 | 108 | 52 | > 10000 | 73 | 40 | 57 | CNc1cccc(C2CCN(CCNC(=O)C3CCOCC3)CC2)n1 [Example 37, N-(2-{4-[6-(Methylamino)pyridin-2-yl]piperidin-1-yl}ethyl)-tetrahydro-2H-pyran-4-carboxamide] |  |  |  |  |  |  |  |

Further lines, the compound ahead of its results:

| Compound | EC50 [1] [nM] | Ki [2, 8] [nM] | EC50 [3] [nM] | Ki [4, 9] [nM] | Ki [6, 10] [nM] | Emax [1] [%] | Emax [3] [%] | 5-HT1A agonistic activity Emax [1] [%] | D4 agonistic activity Emax [3] [%] | Metabolic stability of human liver microsome [5] [mL/min/mg protein] | IC50 [7] [nM] | Ki [6] [nM] | Ki [2] [nM] | Ki [4] [nM] |
| --- | --- | --- | --- | --- | --- | --- | --- | --- | --- | --- | --- | --- | --- | --- |
| COCC(C)(C)C(=O)NCCN1CCC(c2cccc(C)n2)CC1 [Example 5] | 42 | 80 | 55.8 | > 10000 | 170 |  |  | 100 | 57 | <0.01 |  |  |  |  |
| COCC(C)(C)C(=O)NCCN1CCC(c2cccc(C(F)(F)F)n2)CC1 [Example 6] | 44 | 37 | < 10 | > 10000 | 101 |  |  | 96 | 58 | <0.01 |  |  |  |  |
| O=C(NCCN1CC=C(c2cccc(C(F)(F)F)n2)CC1)C1CCC(F)(F)CC1 [Example 12, 4,4-Difluoro-N-{2-[6-(trifluoromethyl)-3′,6′-dihydro[2,4′-bipyridin]-1′ (2′H)-yl]ethyl}-cyclohexane-1-carboxamide] | < 10 | 0.2 | 35 | 357 |  | 43 | 52 |  |  | 0.115 | 3500 | 4.5 |  |  |
| Cc1cccc(C2=CCN(CCNC(=O)[C@H]3C[C@@H]4CC[C@H]3O4)CC2)n1 [Example 13] | < 10 | 1.1 | < 10 | > 10000 |  | 48 | 55 |  |  | <0.05 | > 10000 | 24 |  |  |
| Cc1cccc(C2=CCN(CCNC(=O)C3CCC(F)(F)CC3)CC2)n1 [Example 14] | < 10 | 0.1 | < 10 | 2440 |  | 41 | 53 |  |  | 0.084 | 8100 | 3 |  |  |
| O=C(NCCN1CC=C(c2cccc(C(F)(F)F)n2)CC1)C1CCCOC1 (stereo not drawn) [Example 16, N-{2-[6-(Trifluoromethyl)-3′,6′-dihydro[2,4′-bipyridin]-1′ (2′H)-yl]ethyl}-tetrahydro-2H-pyran-3-carboxamide] | 43 | 6 | 31 | 1690 |  | 36 | 51 |  |  | <0.05 | > 10000 | 27 |  |  |
| COCC(C)(C)C(=O)NCCN1CC=C(c2cccc(C)n2)CC1 [Example 17] | 94 | 26 | 44 | > 10000 |  | 30 | 51 |  |  |  |  | 91 |  |  |
| COCC(C)(C)C(=O)NCCN1CC=C(c2cccc(C(F)(F)F)n2)CC1 [Example 18] | 68 | 21 | 37 | 2210 |  | 43 | 61 |  |  | <0.05 | > 10000 | 19 |  |  |
| O=C(NCCN1CC=C(c2cccc(C(F)(F)F)n2)CC1)C1CCOCC1 [Example 19] | < 10 | 0.8 | 9 | > 10000 |  | 65 | 84 |  |  |  |  | 8 |  |  |
| Cc1cccc(C2=CCN(CCNC(=O)C3CCCCO3)CC2)n1 (stereo not drawn) [Example 20] | 57 |  | 15 |  |  | 40 | 60 |  |  | <0.05 | > 10000 | 92 | 6.8 | > 10000 |
| O=C(NCCN1CCC(c2cccc(C(F)(F)F)n2)CC1)[C@H]1C[C@@H]2CC[C@H]1O2 [Example 21] | 84 | 15 | 65 | 2170 | 201 | 30 | 62 |  |  | <0.05 | > 10000 |  |  |  |
| Cc1cccc(C2CCN(CCNC(=O)C3CCOC3)CC2)n1 (stereo not drawn) [Example 22] | 595 | 58 | 57 | > 10000 | 2240 | 25 | 57 |  |  |  |  |  |  |  |
| CO[C@H]1CC[C@H](C(=O)NCCN2CCC(c3cccc(C)n3)CC2)CC1 [Example 26] | 395 | 79 | 3390 | > 10000 | 1900 | 43 | 36 |  |  |  |  |  |  |  |
| O=C(NCCN1CCC(c2cccc(F)n2)CC1)C1CCOCC1 [Example 32] | 67 | 42 | 7 | > 10000 | 96 | 51 | 67 |  |  |  |  |  |  |  |
| N#Cc1cccc(C2CCN(CCNC(=O)C3CCOCC3)CC2)n1 [Example 35, N-{2-[4-(6-Cyanopyridin-2-yl)piperidin-1-yl]ethyl}-tetrahydro-2H-pyran-4-carboxamide] | 525 | 278 | 64 | > 10000 | 2260 | 27 | 52 |  |  |  |  |  |  |  |
